Patent US9028845B2, “Chimeric immunomodulatory compounds and methods of using the same-IV” (Dynavax Technologies Corporation, priority 2001, dated 2015)

Tested on: human PBMCs
Assay: Human PBMC cytokine response assay (IFN-γ and IFN-α in cell-free medium by ELISA), with or without cPLGA;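 for IFN-α (pg/ml) mean: 20 µg/mL compound for 24 hours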;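 for IFN-γ (pg/ml) mean: 20 µg/mL compound for 24 hours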
Assay type: cell-based
Conditions: for IFN-a / IFN-g / IFN-a mean / IFN-g mean: Table 25; for IFN-a mean / IFN-g mean: mean of donors 28250-28253
[1] = donor 28250, polynucleotides/spacers at amounts equivalent to the CIC, spacers alone 9 uM
[2] = Example 58, 0.8 ug/ml, mean of four individuals
[3] = Example 58, 4 ug/ml, mean of four individuals
[4] = Example 58, 20 ug/ml, mean of four individuals
[5] = donor 28066, 20 ug/ml, 24 h, + PLGA = premixed with 100 μg/ml cPLGA
[6] = donor 28067, 20 ug/ml, 24 h, + PLGA = premixed with 100 μg/ml cPLGA
[7] = donor 28068, 20 ug/ml, 24 h, + PLGA = premixed with 100 μg/ml cPLGA
[8] = mean of Donors 3-4, 20 μg/ml, 24 h
[9] = mean of donors 28065-28068, 20 ug/ml, 24 h, + PLGA = premixed with 100 μg/ml cPLGA

Compound `OCCOCCOCCO` [Triethylene glycol] has an IFN-a (donor 28250) of 16 pg/mL, an IFN-g [1] of 15 pg/mL and an IFN-a (donor 28251) of 16 pg/mL. The IFN-g (donor 28251) was 1 pg/mL, the IFN-a (donor 28252) was 16 pg/mL and the IFN-g (donor 28252) was 7 pg/mL. For the same compound, the IFN-a (donor 28253) was 16 pg/mL, the IFN-g (donor 28253) was 1 pg/mL and the IFN-a mean was 16 pg/mL. It also gave an IFN-g mean of 6 pg/mL.

With “5′-TCGAACGTTCGA-3′ (SEQ ID NO: 155) (listed as DNA, chemistry not fully specified) [Compound P-17, reference compound]” the IFN-α (Example 58, 0.8 ug/ml, donor 1) was 52 pg/mL, the IFN-α (Example 58, 0.8 ug/ml, donor 2) was 105 pg/mL and the IFN-α (Example 58, 0.8 ug/ml, donor 3) was 52 pg/mL. For the same compound, the IFN-α (Example 58, 0.8 ug/ml, donor 4) was 286 pg/mL, the IFN-α mean [2] was 124 pg/mL and the IFN-α (Example 58, 4 ug/ml, donor 1) was 9154 pg/mL. For the same compound, the IFN-α (Example 58, 4 ug/ml, donor 2) was 10388 pg/mL, the IFN-α (Example 58, 4 ug/ml, donor 3) was 531 pg/mL and the IFN-α (Example 58, 4 ug/ml, donor 4) was 837 pg/mL. It also gave an IFN-α mean [3] of 5228 pg/mL, an IFN-α (Example 58, 20 ug/ml, donor 1) of 1022 pg/mL and an IFN-α (Example 58, 20 ug/ml, donor 2) of 1792 pg/mL. The IFN-α (Example 58, 20 ug/ml, donor 3) was 52 pg/mL, the IFN-α (Example 58, 20 ug/ml, donor 4) was 52 pg/mL and the IFN-α mean [4] was 729 pg/mL.

“5′-TCGTCGA-3′-HEG-5′-AACGTTC-3′-HEG-5′-TCGTCGA-3′ [Compound C-55]” was tested, and the IFN-α (Table 13, donor 28156) was 9 pg/mL, the IFN-γ (Table 13, donor 28156) was 511 pg/mL and the IFN-α (Table 13, donor 28157) was 5 pg/mL. The IFN-γ (Table 13, donor 28157) was 566 pg/mL, the IFN-α (Table 13, donor 28158) was 63 pg/mL and the IFN-γ (Table 13, donor 28158) was 55 pg/mL. It also gave an IFN-α (Table 13, donor 28159) of 3 pg/mL, an IFN-γ (Table 13, donor 28159) of 186 pg/mL and an IFN-α mean (Table 13, mean of donors) of 20 pg/mL. It also gave an IFN-γ mean (Table 13, mean of donors) of 329 pg/mL.

Compound “(5′-TCGACGT-HEG)2-glycerol-HEG-5′-ACTTAGAGGTTCAGTAGG-3′ (SEQ ID NO: 157) (DNA, all phosphorothioate, methylation of C not given here; Two heptamer DNA arms joined by HEG spacers and glycerol branching to the chain) [Compound C-202]” has an IFN-α (Example 59, 0.8 ug/ml, donor 48) of 830 pg/mL, an IFN-α (Example 59, 0.8 ug/ml, donor 177) of 102 pg/mL and an IFN-α (Example 59, 0.8 ug/ml, donor 272) of 102 pg/mL. It also gave an IFN-α (Example 59, 0.8 ug/ml, donor 273) of 102 pg/mL, an IFN-α mean (Example 59, 0.8 ug/ml, mean of four donors) of 284 pg/mL and an IFN-α (Example 59, 4 ug/ml, donor 48) of 2250 pg/mL. The IFN-α (Example 59, 4 ug/ml, donor 177) was 2482 pg/mL, the IFN-α (Example 59, 4 ug/ml, donor 272) was 1222 pg/mL and the IFN-α (Example 59, 4 ug/ml, donor 273) was 215 pg/mL. It also gave an IFN-α mean (Example 59, 4 ug/ml, mean of four donors) of 1542 pg/mL, an IFN-α (Example 59, 20 ug/ml, donor 48) of 1901 pg/mL and an IFN-α (Example 59, 20 ug/ml, donor 177) of 2742 pg/mL. It also gave an IFN-α (Example 59, 20 ug/ml, donor 272) of 612 pg/mL, an IFN-α (Example 59, 20 ug/ml, donor 273) of 339 pg/mL and an IFN-α mean (Example 59, 20 ug/ml, mean of four donors) of 1399 pg/mL.

With “5′-AGATGAT-3′ [Compound P-4, reference compound]” the “IFN-α (pg/ml) Donor 3” value (Donor 3, 20 μg/ml, 24 h) was 0 pg/mL, the “IFN-γ (pg/ml) Donor 3” value (Donor 3, 20 μg/ml, 24 h) was 0 pg/mL and the “IFN-α (pg/ml) Donor 4” value (Donor 4, 20 μg/ml, 24 h) was 58 pg/mL. For the same compound, the “IFN-γ (pg/ml) Donor 4” value (Donor 4, 20 μg/ml, 24 h) was 3 pg/mL, the IFN-a (donor 28250) was 16 pg/mL and the IFN-g [1] was 72 pg/mL. The IFN-a (donor 28251) was 16 pg/mL, the IFN-g (donor 28251) was 1 pg/mL and the IFN-a (donor 28252) was 16 pg/mL. The IFN-g (donor 28252) was 43 pg/mL, the IFN-a (donor 28253) was 16 pg/mL and the IFN-g (donor 28253) was 1 pg/mL. The IFN-a mean was 16 pg/mL, the IFN-g mean was 29 pg/mL and the “IFN-γ (pg/ml) 28065” value (donor 28065 (high background), 20 ug/ml, 24 h, + PLGA = premixed with 100 μg/ml cPLGA, 1000 = outside assay limits) was 93 pg/mL. The “IFN-α (pg/ml) 28065” value (donor 28065, 20 ug/ml, 24 h, + PLGA = premixed with 100 μg/ml cPLGA) was 0 pg/mL, the “IFN-α (pg/ml) 28066” value [5] was 0 pg/mL and the “IFN-γ (pg/ml) 28066” value [5] was 1 pg/mL. For the same compound, the “IFN-α (pg/ml) 28067” value [6] was 9 pg/mL, the “IFN-γ (pg/ml) 28067” value [6] was 1 pg/mL and the “IFN-α (pg/ml) 28068” value [7] was 0 pg/mL. The “IFN-γ (pg/ml) 28068” value [7] was 1 pg/mL, the “IFN-α (pg/ml) mean” value [8] was 29 pg/mL and the “IFN-γ (pg/ml) mean” value [8] was 1 pg/mL. For the same compound, the “IFN-α (pg/ml) mean” value [9] was 2 pg/mL, the “IFN-γ (pg/ml) mean” value [9] was 24 pg/mL and the “immunomodulatory activity (IFN-γ / IFN-α secretion), in words” value (used alone (no cPLGA)) was “did not have immunomodulatory activity”.

In the case of “(5′-TCGAACGTTCGA-3′ (SEQ ID NO: 155)-HEG)2-glycerol-HEG-5′-TCGAACGTTCGA-3′ (SEQ ID NO: 155) (three copies via HEG-glycerol branching, chemistry not fully specified) [Compound C-173]”, the IFN-α (Example 58, 0.8 ug/ml, donor 1) is reported as 272 pg/mL, the IFN-α (Example 58, 0.8 ug/ml, donor 2) is reported as 1293 pg/mL and the IFN-α (Example 58, 0.8 ug/ml, donor 3) is reported as 1138 pg/mL. It also gave an IFN-α (Example 58, 0.8 ug/ml, donor 4) of 2547 pg/mL, an IFN-α mean [2] of 1312 pg/mL and an IFN-α (Example 58, 4 ug/ml, donor 1) of 3828 pg/mL. For the same compound, the IFN-α (Example 58, 4 ug/ml, donor 2) was 2917 pg/mL, the IFN-α (Example 58, 4 ug/ml, donor 3) was 2197 pg/mL and the IFN-α (Example 58, 4 ug/ml, donor 4) was 3563 pg/mL. It also gave an IFN-α mean [3] of 3126 pg/mL, an IFN-α (Example 58, 20 ug/ml, donor 1) of 14381 pg/mL and an IFN-α (Example 58, 20 ug/ml, donor 2) of 8060 pg/mL. The IFN-α (Example 58, 20 ug/ml, donor 3) was 66 pg/mL, the IFN-α (Example 58, 20 ug/ml, donor 4) was 299 pg/mL and the IFN-α mean [4] was 5701 pg/mL. The “IFN-α from human PBMC compared with parent oligonucleotide P-17, in words” value (low doses (e.g., 0.8 ug/ml), four individuals) was “induce significantly more IFN-α”.
